# In publication PMC4929936, “Isoform-specific modulation of the chemical sensitivity of conserved TRPA1 channel in the major honeybee ectoparasitic mite, Tropilaelaps mercedesae” (Open Biology, 2016):
# How the values were obtained:
# [1] = molecular target: T1, TmTRPA1b (Tropilaelaps mercedesae, UniProt A0A193PK79); experiment: Fura-2 calcium imaging, HEK293; type: cell-based; conditions: pH 7.4, 2 mM CaCl2
# T1 construct: gene TRPA1; full-length, untagged, transiently expressed in HEK293 cells; expected 143 kD; 15 ankyrin repeats
# T1 sequence (A0A193PK79 1-1258): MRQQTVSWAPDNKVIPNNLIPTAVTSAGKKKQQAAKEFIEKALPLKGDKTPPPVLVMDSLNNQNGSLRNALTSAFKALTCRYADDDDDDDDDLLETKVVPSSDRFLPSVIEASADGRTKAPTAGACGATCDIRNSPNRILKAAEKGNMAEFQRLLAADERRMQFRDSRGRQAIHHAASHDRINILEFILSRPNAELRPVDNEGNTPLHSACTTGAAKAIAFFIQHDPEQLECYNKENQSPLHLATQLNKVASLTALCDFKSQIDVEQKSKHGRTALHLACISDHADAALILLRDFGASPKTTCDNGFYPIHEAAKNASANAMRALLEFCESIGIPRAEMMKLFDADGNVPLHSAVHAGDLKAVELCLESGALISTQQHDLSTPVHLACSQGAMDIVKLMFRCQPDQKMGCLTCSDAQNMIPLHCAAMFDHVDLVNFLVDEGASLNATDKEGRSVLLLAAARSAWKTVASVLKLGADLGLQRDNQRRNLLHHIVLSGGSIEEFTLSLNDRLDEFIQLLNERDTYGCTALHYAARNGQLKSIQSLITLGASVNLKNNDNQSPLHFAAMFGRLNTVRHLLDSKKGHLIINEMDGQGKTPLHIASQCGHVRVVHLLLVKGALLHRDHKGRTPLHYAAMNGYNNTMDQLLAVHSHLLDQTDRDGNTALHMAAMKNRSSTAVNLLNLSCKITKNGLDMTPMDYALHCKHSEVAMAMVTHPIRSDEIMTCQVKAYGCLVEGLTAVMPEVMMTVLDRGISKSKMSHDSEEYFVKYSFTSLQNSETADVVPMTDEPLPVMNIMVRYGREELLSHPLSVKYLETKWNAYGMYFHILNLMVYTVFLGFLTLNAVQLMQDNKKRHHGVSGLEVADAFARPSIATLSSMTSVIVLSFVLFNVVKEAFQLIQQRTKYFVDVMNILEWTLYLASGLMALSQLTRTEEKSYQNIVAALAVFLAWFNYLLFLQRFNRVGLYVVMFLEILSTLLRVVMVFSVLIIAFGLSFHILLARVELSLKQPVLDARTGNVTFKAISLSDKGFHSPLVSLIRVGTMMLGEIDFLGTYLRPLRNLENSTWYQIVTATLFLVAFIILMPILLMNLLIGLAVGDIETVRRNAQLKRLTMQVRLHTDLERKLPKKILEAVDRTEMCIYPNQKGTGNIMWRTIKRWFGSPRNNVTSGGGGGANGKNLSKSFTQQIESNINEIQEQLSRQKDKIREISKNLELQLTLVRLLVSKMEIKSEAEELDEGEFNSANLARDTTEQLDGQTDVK
# [2] = molecular target: T2, TmTRPA1a (Tropilaelaps mercedesae, UniProt A0A193PK31); experiment: Fura-2 calcium imaging, HEK293; type: cell-based; conditions: activator, pH 7.4, 2 mM CaCl2
# T2 construct: gene TRPA1; full-length, untagged, transiently expressed in HEK293 cells; expected 134 kD; 15 ankyrin repeats
# T2 sequence (A0A193PK31 1-1172): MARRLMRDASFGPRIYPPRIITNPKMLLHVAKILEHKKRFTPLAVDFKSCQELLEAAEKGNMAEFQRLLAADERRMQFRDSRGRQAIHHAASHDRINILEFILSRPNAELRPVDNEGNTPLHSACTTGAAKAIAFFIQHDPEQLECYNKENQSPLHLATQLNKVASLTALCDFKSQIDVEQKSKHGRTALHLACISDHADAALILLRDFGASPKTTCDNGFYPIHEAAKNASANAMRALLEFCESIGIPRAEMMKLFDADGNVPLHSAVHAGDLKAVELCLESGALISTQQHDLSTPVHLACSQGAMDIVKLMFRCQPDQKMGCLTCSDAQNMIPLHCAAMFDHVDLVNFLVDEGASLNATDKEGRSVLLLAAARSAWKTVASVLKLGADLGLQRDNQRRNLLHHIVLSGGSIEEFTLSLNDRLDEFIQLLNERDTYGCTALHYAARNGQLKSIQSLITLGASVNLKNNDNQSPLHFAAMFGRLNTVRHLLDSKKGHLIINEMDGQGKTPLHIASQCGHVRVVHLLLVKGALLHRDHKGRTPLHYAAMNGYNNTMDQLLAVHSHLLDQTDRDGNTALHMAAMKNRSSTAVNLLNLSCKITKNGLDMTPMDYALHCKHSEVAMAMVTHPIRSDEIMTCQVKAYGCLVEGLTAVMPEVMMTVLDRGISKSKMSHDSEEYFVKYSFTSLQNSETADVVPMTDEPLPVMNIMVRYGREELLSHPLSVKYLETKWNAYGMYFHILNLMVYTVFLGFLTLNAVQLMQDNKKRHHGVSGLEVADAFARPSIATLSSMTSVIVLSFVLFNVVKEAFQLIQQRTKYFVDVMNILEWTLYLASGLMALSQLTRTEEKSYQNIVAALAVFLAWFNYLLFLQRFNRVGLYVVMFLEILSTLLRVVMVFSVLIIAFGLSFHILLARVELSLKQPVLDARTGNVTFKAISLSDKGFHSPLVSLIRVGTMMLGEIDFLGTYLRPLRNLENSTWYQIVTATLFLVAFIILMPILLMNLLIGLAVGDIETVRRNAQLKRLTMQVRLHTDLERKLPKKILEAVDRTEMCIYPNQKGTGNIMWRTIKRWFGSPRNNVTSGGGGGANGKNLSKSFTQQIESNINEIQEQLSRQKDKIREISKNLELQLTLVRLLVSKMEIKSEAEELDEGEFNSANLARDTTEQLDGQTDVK
# From the text: Fura-2 calcium imaging, HEK293 on TmTRPA1a | only six of the compounds activated TmTRPA1a.
structure (smiles),measurement,setting,value
"CC12CCC(CC1)C(C)(C)O2 [1,8-cineole]","Fura-2 calcium imaging, HEK293","[1]; 1 mM, activator",We observed robust activation of TmTRPA1b by eight representative plant-derived compounds
CCCCCCCCCC(C)=O [2-undecanone],"Fura-2 calcium imaging, HEK293",[2]; 1 mM,"only six of the compounds activated TmTRPA1a. These are nerol, 2-undecanone, carvacrol"
same,"Fura-2 calcium imaging, HEK293","[1]; 1 mM, activator",We observed robust activation of TmTRPA1b by eight representative plant-derived compounds
C=CCN=C=S [allyl isothiocyanate],"Fura-2 calcium imaging, HEK293","[1]; 1 mM, electrophilic activator","allyl isothiocyanate (AITC), cinnamaldehyde (CA) and diallyl disulfide also activate TmTRPA1b"
Cc1ccc(C(C)C)cc1O [carvacrol],"Fura-2 calcium imaging, HEK293",[2]; 0.5 mM,"only six of the compounds activated TmTRPA1a. These are nerol, 2-undecanone, carvacrol"
same,"Fura-2 calcium imaging, HEK293","[1]; 0.5 mM, activator",We observed robust activation of TmTRPA1b by eight representative plant-derived compounds
O=CC=Cc1ccccc1 [cinnamaldehyde],"Fura-2 calcium imaging, HEK293","[1]; 1 mM, electrophilic activator","allyl isothiocyanate (AITC), cinnamaldehyde (CA) and diallyl disulfide also activate TmTRPA1b"
C=CCSSCC=C [diallyl disulfide],"Fura-2 calcium imaging, HEK293","[1]; 1 mM, electrophilic activator","allyl isothiocyanate (AITC), cinnamaldehyde (CA) and diallyl disulfide also activate TmTRPA1b"
C=CCc1ccc(O)c(OC)c1 [eugenol],"Fura-2 calcium imaging, HEK293",[2]; 1 mM,"These are nerol, 2-undecanone, carvacrol, geranylacetone, eugenol and terpinen-4-ol"
CC(=O)CC/C=C(\C)CCC=C(C)C [geranylacetone],"Fura-2 calcium imaging, HEK293",[2]; 0.5 mM,"These are nerol, 2-undecanone, carvacrol, geranylacetone, eugenol and terpinen-4-ol"
same,"Fura-2 calcium imaging, HEK293","[1]; 0.5 mM, activator",We observed robust activation of TmTRPA1b by eight representative plant-derived compounds
CC/C=C\C[C@H]1C(=O)CC[C@@H]1CC(=O)OC [methyl jasmonate],"Fura-2 calcium imaging, HEK293","[1]; 1 mM, activator",We observed robust activation of TmTRPA1b by eight representative plant-derived compounds
CC(C)=CCC/C(C)=C\CO [nerol],"Fura-2 calcium imaging, HEK293",[2]; 1 mM (Figure 5 legend; Methods state 0.5 mM),"only six of the compounds activated TmTRPA1a. These are nerol, 2-undecanone, carvacrol"
same,"Fura-2 calcium imaging, HEK293","[1]; 0.5 mM, activator",We observed robust activation of TmTRPA1b by eight representative plant-derived compounds
CC1=CCC(O)(C(C)C)CC1 (centres unmarked) [terpinen-4-ol],"Fura-2 calcium imaging, HEK293",[2]; 1 mM,"These are nerol, 2-undecanone, carvacrol, geranylacetone, eugenol and terpinen-4-ol"
CC1=CCC(C(C)(C)O)CC1 (stereo not drawn) [α-terpineol],"Fura-2 calcium imaging, HEK293","[1]; 1 mM, activator",We observed robust activation of TmTRPA1b by eight representative plant-derived compounds
CC(C)=CCCC(C)CCO (stereo not drawn) [β-citronellol],"Fura-2 calcium imaging, HEK293","[1]; 1 mM, activator",We observed robust activation of TmTRPA1b by eight representative plant-derived compounds
